The results in this text go back to publication PMC10535864, “Novel Aminopyrimidine-2,4-diones, 2-Thiopyrimidine-4-ones, and 6-Arylpteridines as Dual-Target Inhibitors of BRD4/PLK1: Design, Synthesis, Cytotoxicity, and Computational Studies” (Pharmaceuticals, 2023).

For test [1], the system named is caspase-3 gene in MDA-MB-231 cells. The test can be described thus: RT-PCR gene expression, caspase-3. It is filed as cell-based. The conditions noted are these: 48 h treatment, control = 1. The protocol: (§1) As well, there was an apparent increase in caspase-3, showing 3.9-fold more expression than in control cells.
(§2) Fluorometric analysis was used to gauge the level of these genes’ expression. The procedure for the used kit was carried out in accordance with the manufacturer’s instructions, which are detailed in the Supplementary file. […]
(§3) […] at pH 7.4). The flow cytometer was then used to examine the cells […]
(§4) 1.4.Estimation of apoptotic and anti-apoptotic gene markers […]
(§5) such as Bax and caspase-3, as well as anti-apoptotic genes such as Bcl-2, was studied using the BIORAD iScriptTM One-Step RT-PCR kit with SYBR® Green. MDA-MB-231 cells were cultured before being treated for 48 hours […]
(§6) Fluorometric analysis was used to gauge the level of these genes' expression. The procedure for the used kit was carried out in accordance with the manufacturer's instructions, which are detailed as follows:
(§7) 1.4.1. RNA isolation and reverse transcription m RNA isolation iscarried out using an RNeasy extraction kit,up to 1 x 10^7 cells, depending on the cell line. Cells are disrupted in RNeasy Lysis Buffer (RLT buffer), homogenized, then ethanol is added to the lysate, creating conditions that promote selective binding of RNA to the RNeasy membrane. […]

The test system of test [2] is BAX gene in MDA-MB-231 cells. Put plainly: RT-PCR gene expression, BAX. It is filed as cell-based. As to conditions: 48 h treatment, control = 1. How it is done:
as §1, §2, §3, §4, §5, §6, §7

The target in a further test is T1, BRD4 (BD2) (Homo sapiens, UniProt O60885).
T1 construct: BRD4 (BD2) should be thawed on ice; purchased
The test can be described thus: BRD4 inhibitory activity assay (AlphaLISA Bromodomain Assay).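 Further: in vitro inhibition of recombinant BRD4 BD2 bromodomain binding to a BET bromodomain ligand, read by AlphaLISA proximity signal.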 The format is binding. For orientation: Alpha assays give light when donor and acceptor beads are brought close together.

Test [3] concerns Bcl-2 gene in MDA-MB-231 cells. Put plainly: RT-PCR gene expression, Bcl-2. It is filed as cell-based. The conditions noted are these: 48 h treatment, control = 1. The protocol: as §1, §2, §3, §4, §5, §6, §7
The target in the next test is human recombinant PLK1 (Homo sapiens, UniProt P53350). Put plainly: PLK1 inhibitory activity assay (ADP-Glo Kinase Assay). It is filed as biochemical. As to conditions: for %inh: PLK1 Lab Report. How it is done: The BRD4 and PLK1 inhibitory assays were carried out in vitro in accordance with the manufacturer’s instructions; BRD4 was assessed using AlphaLISA Bromodomain Assay Protocol, and PLK1 kinase was tested using the ADP-Glo™ Kinase Assay Protocol, as detailed in the Supplementary file. […]
Sequence of human recombinant PLK1 (P53350 whole entry): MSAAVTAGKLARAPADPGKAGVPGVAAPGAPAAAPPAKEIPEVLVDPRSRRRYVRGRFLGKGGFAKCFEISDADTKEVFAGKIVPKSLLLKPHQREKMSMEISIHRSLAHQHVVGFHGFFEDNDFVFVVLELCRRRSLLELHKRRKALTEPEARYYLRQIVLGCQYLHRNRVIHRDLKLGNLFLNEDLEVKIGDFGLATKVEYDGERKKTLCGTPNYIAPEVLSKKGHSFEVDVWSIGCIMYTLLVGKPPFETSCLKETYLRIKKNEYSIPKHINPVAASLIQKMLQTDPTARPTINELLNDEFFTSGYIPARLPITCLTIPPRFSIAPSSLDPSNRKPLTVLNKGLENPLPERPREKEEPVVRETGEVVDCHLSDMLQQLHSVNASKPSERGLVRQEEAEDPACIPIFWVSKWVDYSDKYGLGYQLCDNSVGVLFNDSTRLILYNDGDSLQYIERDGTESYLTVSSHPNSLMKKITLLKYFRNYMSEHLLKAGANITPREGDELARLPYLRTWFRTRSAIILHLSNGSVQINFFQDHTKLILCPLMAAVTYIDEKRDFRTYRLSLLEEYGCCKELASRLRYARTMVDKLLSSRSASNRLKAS
1.2.2. PLK1 inhibitory activity assay
The kinase reaction was performed with active human recombinant PLK1 and combined with the substrate dephosphorylated casein (positive control) using 1 X reaction buffer (40 mM Tris-HCl pH 7.4, 20 mM MgCl2, 0.1 mg/mL BSA, 1 mM DTT) and 20 μM ATP. The reaction was incubated at30°C for 45 minutes. The amount of ATP transferred was calculated using […] reagent from Promega according to the manufacturer’s instruction.
A plate-reading luminometer isused to measure the luminescence. […]

For test [4], the system named is MDA-MB-231 cells. Put plainly: Apoptosis screening, annexin V-FITC/PI flow cytometry. The format is cell-based. As to conditions: compared to non-treated control MDA-MB-231 cells. The source says:
(§8) The results are indicated as a dot plot graph with four quadrant images (Figure 5B). […] However, both compounds also raised the necrotic percent by 1.8- and 2.8-fold, respectively, compared to non-treated cells. Overall, these findings implied that compound 7 could exert anticancer activity by producing cell cycle arrest at the G2/M phase and inducing apoptosis.
(§9) An Epics XL-MCL™ Flow Cytometer and Flowing software 2012 were used to count and analyze stained cells. The Supplementary file contains detailed descriptions of the flow cytometric analysis of cell-cycle distribution and cellular apoptosis. […]
(§10) 1.3.Cell cycle and apoptosis screening […]
(§11) investigated using an Ab-139418 propidium iodide flow cytometry kit and an Annexin-V assay and biparametric cytofluorimetric analysis, respectively, as instructed by the manufacturer. IC50s of both 7 and […]
Cytometer and Flowing software were used to count and analyze stained cells. The Supplementary file contains detailed descriptions of the flow cytometric analysis of cell-cycle distribution and cellular apoptosis. […]
1.3.2. Apoptosis screening […]
plate received 1 X 105 conc. breast cancer (MDA-MB-231) cells that were then incubated for 24 hours. The cells […]
with PBS, and stained for 15 min at room temperature in the dark with annexin V-FITC and PI in binding buffer (10 […]
µM HEPES, 140 µM NaCl, and 2.5 µM CaCl2 at pH 7.4). […]
high-quality RNA iseluted in RNase-free water.
1.4.2. Master mix preparation
All the following reagents were mixed together to give a totalvolume (50 μL). 2X SYBR® Green RT-PCR reaction mixture (25 μL), forward primer (10 μM) (1.5 μL), reverse primer (10 μM) (1.5 μL), nuclease-free H2O (11 μL), RNA template (1 pg to 100 ng totalRNA) (10 μL) and iScript reverse transcriptase for One-Step RT-PCR (1 μL).
1.4.3. Amplification protocol
Incubate complete reaction mixture in a real-time thermal detection system (Rotorgene) as follows: cDNA synthesis:
10 min at 50 °C, iScript reverse transcriptase inactivation: 5 min at 95 °C, polymerase chain reaction (PCR) cycling and detection (30–45 cycles): 10 s at 95 °C and 30 s at 55 °C to 60 °C (data collection step) and melt curve analysis:
1 min at95 °C and 1 min at55 °C and 10 s at55 °C (80 cycles, increasing each by 0.5 °C each cycle).
On the technique in general: A flow cytometer gives signals particle by particle.

The test system of test [5] is MDA-MB-231 cells. Put plainly: Cell cycle analysis, propidium iodide flow cytometry. The format is cell-based. As to conditions: treated at IC50 concentration, 48 h, control 9.19%.
Text: as §8, §9, §10, §11
Cytometer and Flowing software were used to count and analyze stained cells. The Supplementary file contains detailed descriptions of the flow cytometric analysis of cell-cycle distribution and cellular apoptosis.
1.3.1. Cell cycle analysis […]
a six-well plate containing MDA-MB-231 breast cancer cells was seeded with 1 X 10^5 cells per well and then […]
Following that, cells were gathered and fixed in ice-cold 70% ethanol at 4 °C for 12 hours. The cells were then rinsed with cold Phosphate Buffer Saline (PBS) and incubated for 30 minutes at 37°C in 0.5 mL of PBS after the ethanol was removed. Propidium iodide was used to stain the cells for 30 min while they were in the dark. DNA content was determined using a flow cytometer. […]

By IC50 is commonly meant the concentration that inhibits the measured activity by half. With `CC[C@@H]1C(=O)N(C)c2cnc(Nc3ccc(C(=O)N[C@H]4CC[C@H](N5CCN(CC6CC6)CC5)CC4)cc3OC)nc2N1C(C)C` [Volasertib, reference compound], in test [1], the “Gene expression Caspase-3 (apoptotic gene)” value is reported as 5.531 fold. For the same compound, the “Gene expression BAX (apoptotic gene)” value in test [2] is recorded as 5.332 fold. Besides, the IC50 came to 17 ± 1 nM against BRD4 (BD2) and 25 ± 1 nM on human recombinant PLK1 (mean of three independent experiments, read-out: PLK1 IC50 ± SD). Further, in test [3], the “Gene expression Bcl-2 (anti-apoptotic gene)” value worked out at 0.351 fold. Also, the “%inh” value on human recombinant PLK1 (conc 0.01 (unit not given)) came out at 42%; at human recombinant PLK1 (conc 0.1 (unit not given)), 58%; on human recombinant PLK1 (conc 1 (unit not given)) it was 76%; at human recombinant PLK1 (conc 10 (unit not given)), 91%; on human recombinant PLK1 (conc 100 (unit not given)), 96%. Moreover, in the test on MDA-MB-231 cells [4], the “elevation in the late apoptotic stage” value is on record as ~110.2 fold. Besides, in the test on MDA-MB-231 cells [4], the “increase in early apoptosis” value came to 24.4 fold. The “increase in total apoptosis” value with MDA-MB-231 cells [4] came out at 16.3 fold. In the test with MDA-MB-231 cells [4], the “rise of necrotic percent” value came to 2.8 fold. For the same compound, the “DNA content % at cell cycle phase %G2/M” value in the test on MDA-MB-231 cells [5] is given as 17.38%.
